Measured values taken from patent US20100168099A1, “1H-QUINOLIN-4-ONE COMPOUNDS, WITH AFFINITY FOR THE GABA RECEPTOR, PROCESSES, USES AND COMPOSITIONS” (FERRER INTERNACIONAL, S.A., priority 2006, published 2010).

What was measured:
α2-GABAA receptor = assay: Ligand-binding assay, radiolabeled flumazenil competition, spinal cord membranes; parameters: species or system rat; conditions: rat spinal cord membranes, radiolabeled flumazenil 1 nM
Description: (§1) a) Ligand-binding Assays. Determination of the Affinity of Test Compounds for α1- and α2-GABAA, Receptor
(§2) Male Sprague-Dawley rats weighing 200-250 g at the time of experiment were used. After decapitation of the animal, the cerebellum (tissue that mostly contains α1-GABAA receptor) and spinal cord (tissue that mostly contains α2-GABAA receptor) were removed. The membranes were prepared according to the method by J. Lameh et al. (Prog. Neuro-Psychopharmacol. Biol. Psychiatry, 24, 979-991, 2000) and H. Noguchi et al. (Eur J Pharm, 434, 21-28, 2002) with slight modifications. Once the tissues weighed, they were suspended in 50 mM Tris.HCl (pH 7.4), 1:40 (v/v), or sucrose 0.32 M in the case of spinal cord, homogenized and then centrifuged at 20,000 g for 10 min at 7° C. The resulting pellet was resuspended under the same conditions and centrifuged again. The pellet was finally resuspended on a minimum volume and kept at −80° C. overnight. On the next day, the process was repeated until the final pellet was resuspended at a ratio of 1:10 (v/v) in the case of cerebellum and at a ratio of 1:5 (v/v) in the case of spinal cord.
(§3) Affinity was determined by competitive tests using radiolabeled flumazenil as ligand. The tests were performed according to the methods described by S. Arbilla et al. (Eur. J. Pharmacol., 130, 257-263, 1986); and Y. Wu et al. (Eur. J. Pharmacol., 278, 125-132, 1995) using 96-well microtiter plates. The membranes containing the study receptors, flumazenil (radiolabeling at a final concentration of 1 nM) and ascending concentrations of test compounds (in a total volume of 230 μL in 50 mM [pH 7.4] Tris.HCl buffer) were incubated. Simultaneously, the membranes were only incubated with the radiolabeled flumazenil (total binding, 100%) and in the presence of an elevated concentration of unradiolabeled flumazenil (non-specific binding, % estimation of radiolabeled ligand). The reactions started on adding the radiolabeled ligand followed by incubation for 60 minutes at 4° C. At the end of the incubation period, 200 μL of reaction were transferred to a multiscreen plate (Millipore) and filtered using a vacuum manifold and then washed three times with cold test buffer. The multiscreen plates were equipped with a GF/B filter that retained the membranes containing the receptors and the radiolabeled ligand which had been bound to the receptors. After washing, the plates were left till dry. Once dried, scintillation liquid was added and left under stirring overnight. The next day the plates were counted using a Perkin-Elmer Microbeta scintillation counter.
(§4) For analysis of the results the percentage of specific binding for every concentration of test compound was calculated as follows:
(§5) % specific binding=(X−N/T−N)×100
(§6) where, X: amount of bound ligand for every concentration of compound. T: total binding, maximum amount bound to the radiolabeled ligand. N: non-specific binding, amount of radiolabeled ligand bound in a non-specific way irrespective of the receptor used.
(§7) Every concentrations of compound were tested in triplicate and their mean values were used to determine the experimental values of % specific binding versus the concentration of compound. Affinity data are expressed as % inhibition at 10^−5M and 10^−7M concentrations.

[1] = test system: spontaneous motor activity of male CD1 mice; assay: In vivo predictive sedation-hypnosis test (traveled distance); conditions: Mus musculus, ip, 0.5 h, 98 μmol/kg, single intraperitoneal dose, 30 minutes after dosing (first 5 min discarded), versus control
Description: b) In Vivo Determination of Predictive Sedative-Hypnotic Action
The in vivo effects of these compounds were assessed by a predictive sedation-hypnosis test in mice (D. J. Sanger et al., Eur. J. Pharmacol., 313, 35-42, 1996; and G. Griebel et al., Psychopharmacology, 146, 205-213, 1999).
Groups of 5-8 male CD1 mice, weighing 22-26 g at the time of test, were used. The test compounds were administered in single equimolecular intraperitoneal doses, suspended in 0.25% agar with one drop of Tween in a volume of 10 mL/kg. Control animals received the vehicle alone. Using a Smart System (Panlab, S. L., Spain) the traveled distance in cm was recorded for each mouse at 5 min intervals during a period of 30 minutes after dosing. The inhibition percentage traveled distance of treated animals versus control animals (the first 5 min were discarded) was calculated.

α1-GABAA receptor = assay: Ligand-binding assay, radiolabeled flumazenil competition, cerebellum membranes; parameters: species or system rat; conditions: for Affinity for the α1-subunit of the GABAA receptor, % inhibition: rat cerebellum membranes, radiolabeled flumazenil 1 nM
Description: as §1, §2, §3, §4, §5, §6, §7

Cc1ccc2c(=O)c(-c3ccccc3)cn(CC(=O)N3C(C)C=CC3C)c2c1 (stereo not drawn) [Example 42, 1-[2-(2,5-Dimethyl-2,5-dihydro-pyrrol-1-yl)-2-oxo-ethyl]-7-methyl-3-phenyl-1H-quinolin-4-one]
Affinity for the α2-subunit of the GABAA receptor, % inhibition (α2-GABAA receptor; 10^−5M): 74.1%
Affinity for the α2-subunit of the GABAA receptor, % inhibition (α2-GABAA receptor; 10^−7M): 0.0%
inhibition in vivo at 98 µmol/kg [1]: 92.2%
Affinity for the α1-subunit of the GABAA receptor, % inhibition (α1-GABAA receptor; 10^−5M): 97.0%
Affinity for the α1-subunit of the GABAA receptor, % inhibition (α1-GABAA receptor; 10^−7M): 25.6%

Cc1ccc2c(=O)c(-c3ccccc3)cn(CC(=O)c3ccccn3)c2c1 [Example 28, 7-Methyl-1-(2-oxo-2-pyridin-2-yl-ethyl)-3-phenyl-1H-quinolin-4-one]
Affinity for the α2-subunit of the GABAA receptor, % inhibition (α2-GABAA receptor; 10^−5M): 88.0%
Affinity for the α2-subunit of the GABAA receptor, % inhibition (α2-GABAA receptor; 10^−7M): 0.0%
inhibition in vivo at 98 µmol/kg [1]: 84.4%
Affinity for the α1-subunit of the GABAA receptor, % inhibition (α1-GABAA receptor; 10^−5M): 97.9%
Affinity for the α1-subunit of the GABAA receptor, % inhibition (α1-GABAA receptor; 10^−7M): 22.5%

CCN(CC)C(=O)Cn1cc(-c2ccccc2)c(=O)c2ccc(C)cc21 [Example 17, N,N-Diethyl-2-(7-methyl-4-oxo-3-phenyl-4H-quinolin-1-yl)-acetamide]
Affinity for the α2-subunit of the GABAA receptor, % inhibition (α2-GABAA receptor; 10^−5M): 70.1%
Affinity for the α2-subunit of the GABAA receptor, % inhibition (α2-GABAA receptor; 10^−7M): 0.0%
inhibition in vivo at 98 µmol/kg [1]: 81.5%
Affinity for the α1-subunit of the GABAA receptor, % inhibition (α1-GABAA receptor; 10^−5M): 91.4%
Affinity for the α1-subunit of the GABAA receptor, % inhibition (α1-GABAA receptor; 10^−7M): 0.7%

Cc1ccc2c(=O)c(-c3ccccc3)cn(CC(=O)N3CCCCC3)c2c1 [Example 15, 7-Methyl-1-(2-oxo-2-piperidin-1-yl-ethyl)-3-phenyl-1H-quinolin-4-one]
Affinity for the α2-subunit of the GABAA receptor, % inhibition (α2-GABAA receptor; 10^−5M): 13.3%
Affinity for the α2-subunit of the GABAA receptor, % inhibition (α2-GABAA receptor; 10^−7M): 0.0%
inhibition in vivo at 98 µmol/kg [1]: 84.7%
Affinity for the α1-subunit of the GABAA receptor, % inhibition (α1-GABAA receptor; 10^−5M): 87.3%
Affinity for the α1-subunit of the GABAA receptor, % inhibition (α1-GABAA receptor; 10^−7M): 0.0%
α1-/α2-selectivity (in words) (α1-GABAA receptor; compared with zolpidem): higher α1-/α2-selectivity than the most selective therapeutically used compound zolpidem
